Values of other authors in patent US20040115261A1, “Controlled delivery of tetracycline compounds and tetracycline derivatives” (priority 2003, published 2004).

Details: based on steady-state pharmacokinetics, minimum antibiotic serum concentration = lowest concentration known to exert a significant antibiotic effect

Compound: CN(C)[C@@H]1C(O)=C(C(N)=O)C(=O)[C@@]2(O)C(O)=C3C(=O)c4c(O)cccc4[C@@](C)(O)[C@H]3C[C@@H]12 [tetracycline]
- plasma antibiotic threshold level: 0.5 µg/mL
